Test results from US9957246B2, “Prodrugs of tetrahydrocannabinol, compositions comprising prodrugs of tetrahydrocannabinol and methods of using the same” (Zynerba Pharmaceuticals, Inc., priority 2007, dated 2018).

What was measured:
[1] = Plasma stability of prodrugs (bioconversion to parent drug); format: in vitro ADME
Method: Approximately 1 mg/mL of stock solution of each prodrug was prepared in 100 μL of ethanol and 900 μL of acetonitrile. Next, 10 μL of stock was spiked into 1 mL of plasma and vortexed. The samples were kept sealed in an amber vial and samples were obtained to analyze for bioconversion to parent drug.
An approximated 1 mg/mL stock solution of each prodrug was prepared in 100 μL of ethanol and 900 μL of acetonitrile. Next, 10 μL of stock was spiked into 1 mL of plasma and vortexed. The samples were kept sealed in an amber vial and samples were obtained to analyze for bioconversion to parent drug.
Approximately 1 mg/mL of stock solution of each prodrug was prepared in 100 μL of ethanol and 900 μL of acetonitrile. Ten μL of stock was spiked into 1 mL of plasma and vortexed. The samples were kept sealed in an amber vial and samples were obtained to analyze for bioconversion to parent drug.

[2] = In vitro human skin permeation, flow-through diffusion cells; conditions: for Flux enhancement: total THC equivalents
[3] = Table 17, 90:8:2 PG:H2O:IPM donor solution, analyte: THC from prodrug
[4] = Table 17, 90:8:2 PG:H2O:IPM donor solution, analyte: THC or intact prodrug as applied
[5] = Table 17, 90:8:2 PG:H2O:IPM donor solution, total THC equivalents (THC and/or prodrug)
[6] = Table 7, 2.36:1.18:1 PG:ethanol:H2O donor solution, analyte: THC from prodrug
[7] = Table 7, 2.36:1.18:1 PG:ethanol:H2O donor solution, analyte: THC or intact prodrug as applied
[8] = Table 7, 2.36:1.18:1 PG:ethanol:H2O donor solution, total THC equivalents (THC and/or prodrug)
[9] = Table 8, gel formulation, analyte: THC or intact prodrug as applied
[10] = Table 13, gel formulation with 40% aqueous PEG 400 receiver fluid, analyte: THC or intact prodrug as applied
[11] = Table 9, 2.36:1.18:1 pH = 5.5 PG:ethanol:H2O donor solution, analyte: THC or intact prodrug as applied
[12] = Table 10, 2.36:1.18:1 pH = 5.5 PG:ethanol:H2O donor solution, analyte: THC or intact prodrug as applied
[13] = Table 19, 90:8:2 PG:H2O:IPM donor solution, analyte: THC or intact prodrug as applied

## CCCCCc1cc(OC(=O)CN(C)C)c2c(c1)OC(C)(C)[C@@H]1CCC(C)=C[C@@H]21 [ALL00118, Δ^9-Tetrahydrocannabinol N,N-dimethylglycyl ester]
[1]; Table 11, 0.1 h
  % Prodrug at time (h): 100%
[1]; Table 11, 1 h
  % Prodrug at time (h): 94%
[1]; Table 11, 22 h
  % Prodrug at time (h): 86%
[1]; Table 11, 24 h
  % Prodrug at time (h): 81%
[1]; Table 11, 42 h
  % Prodrug at time (h): 15%
[1]; Table 15, 0.1 h
  % Prodrug at time (h): 100%
[1]; Table 15, 1 h
  % Prodrug at time (h): 94%
[1]; Table 15, 2 h
  % Prodrug at time (h): 86%
[1]; Table 15, 2.5 h
  % Prodrug at time (h): 81%
[1]; Table 15, 24 h
  % Prodrug at time (h): 15%
[2]; Table 3, 1:1:1 PG:ethanol:H2O donor solution, analyte: THC from prodrug
  24 h skin conc: 7.1 ± 2.4 µmol/g
[2]; Table 3, 1:1:1 PG:ethanol:H2O donor solution, analyte: THC or intact prodrug (PD)
  24 h skin conc: 37.3 ± 23.2 µmol/g
[2]; Table 4, gel formulation, analyte: THC from prodrug
  24 h skin conc: 65.9 ± 24.7 µmol/g
[2]; Table 4, gel formulation, analyte: THC or intact prodrug (PD)
  24 h skin conc: 48.8 ± 30.2 µmol/g
[2]; [3]
  24 h cumulative amt: 5.6 ± 0.5 nmol
  24 h skin conc: 3.7 ± 0.6 µmol/g
  Flux: 0.4 ± 0.0 nmol/cm^2/h
  Lag time: 10.2 ± 0.3 h
[2]; [4]
  24 h cumulative amt: 5.8 ± 0.4 nmol
  24 h skin conc: 9.8 ± 5.2 µmol/g
  Flux: 0.5 ± 0.0 nmol/cm^2/h
  Lag time: 12.8 ± 0.1 h
[2]; Table 17, 90:8:2 PG:H2O:IPM donor solution
  Flux enhancement: 0.90
[2]; [5]
  24 h cumulative amt: 11.4 ± 0.7 nmol
  24 h skin conc: 13.5 ± 5.8 µmol/g
  Flux: 0.9 ± 0.1 nmol/cm^2/h
  Lag time: 11.6 ± 0.2 h

## CCCCCc1cc(OC(=O)CNC=O)c2c(c1)OC(C)(C)[C@@H]1CCC(C)=C[C@@H]21 [ALL00120, Δ^9-Tetrahydrocannabinol N-formylglycyl ester]
[1]; Table 11, 0.1 h
  % Prodrug at time (h): 70%
[1]; Table 11, 1 h
  % Prodrug at time (h): 8%
[1]; Table 11, 22 h
  % Prodrug at time (h): 0%
[1]; Table 11, 24 h
  % Prodrug at time (h): 0%
[1]; Table 11, 42 h
  % Prodrug at time (h): 0%
[2]; [6]
  24 h cumulative amt: 8.8 ± 1.2 nmol
  24 h skin conc: 3.1 ± 1.1 µmol/g
  Flux: 0.6 ± 0.1 nmol/cm^2/h
  Lag time: 9.2 ± 0.8 h
[2]; [7]
  24 h cumulative amt: 30.5 ± 7.0 nmol
  24 h skin conc: 47.1 ± 6.3 µmol/g
  Flux: 2.0 ± 0.5 nmol/cm^2/h
  Lag time: 8.1 ± 1.6 h
[2]; Table 7, 2.36:1.18:1 PG:ethanol:H2O donor solution
  Flux enhancement: 0.87
[2]; [8]
  24 h cumulative amt: 39.3 ± 6.6 nmol
  24 h skin conc: 50.2 ± 7.1 µmol/g
  Flux: 2.7 ± 0.5 nmol/cm^2/h
  Lag time: 8.4 ± 1.3 h
[2]; Table 8, gel formulation, analyte: THC from prodrug
  24 h skin conc: 3.1 ± 2.1 µmol/g
[2]; [9]
  24 h skin conc: 44.8 ± 1.6 µmol/g
[2]; Table 8, gel formulation, total THC equivalents (THC and/or prodrug)
  24 h skin conc: 47.9 ± 2.8 µmol/g

## CCCCCc1cc(OC(=O)CO)c2c(c1)OC(C)(C)[C@@H]1CCC(C)=C[C@@H]21 [ALL00154, Δ^9-Tetrahydrocannabinol glycolate]
[1]; Table 14, 0 h
  % Prodrug at time (h): 95%
[1]; Table 14, 1 h
  % Prodrug at time (h): 0%
[1]; Table 14, 21 h
  % Prodrug at time (h): 0%
[1]; Table 14, 24 h
  % Prodrug at time (h): 0%
[2]; [10]
  24 h cumulative amt: 39.2 nmol
  24 h skin conc: 2.6 ± 1.5 µmol/g
  Flux: 3.23 nmol/cm^2/h
  Lag time: 12.2 h

## CCCCCc1cc(OC(=O)CCN(C)C)c2c(c1)OC(C)(C)[C@@H]1CCC(C)=C[C@@H]21 [ALL00153, Δ^9-Tetrahydrocannabinol 3-(dimethylamino)propionate]
[1]; Table 14, 0 h
  % Prodrug at time (h): 98%
[1]; Table 14, 1 h
  % Prodrug at time (h): 72%
[1]; Table 14, 21 h
  % Prodrug at time (h): 48%
[1]; Table 14, 24 h
  % Prodrug at time (h): 41%
[2]; [10]
  24 h skin conc: 1.6 ± 0.03 µmol/g
[2]; Table 20, 90:8:2 PG:H2O:IPM donor solution (saturated), analyte: THC or intact prodrug as applied
  24 h skin conc: 0.6 ± 0.1 µmol/g

## CCCCCc1cc(OC(=O)CCC(=O)O)c2c(c1)OC(C)(C)[C@@H]1CCC(C)=C[C@@H]21 [ALL00123, Δ^9-Tetrahydrocannabinol hemisuccinate]
[1]; Table 11, 0.1 h
  % Prodrug at time (h): 0%
[1]; Table 11, 1 h
  % Prodrug at time (h): 0%
[1]; Table 11, 22 h
  % Prodrug at time (h): 0%
[1]; Table 11, 24 h
  % Prodrug at time (h): 0%
[1]; Table 11, 42 h
  % Prodrug at time (h): 0%
[2]; [9]
  24 h cumulative amt: 2.3 ± 1.5 nmol
  24 h skin conc: 110.4 ± 22.2 µmol/g
  Flux: 0.15 ± 0.07 nmol/cm^2/h

## CCCCCc1cc(OC(=O)NCCCCN)c2c(c1)OC(C)(C)[C@@H]1CCC(C)=C[C@@H]21 [ALL00124, Δ^9-Tetrahydrocannabinol 4-aminobutyl carbamate]
[1]; Table 11, 0.1 h
  % Prodrug at time (h): 97%
[1]; Table 11, 1 h
  % Prodrug at time (h): 97%
[1]; Table 11, 2 h
  % Prodrug at time (h): 97%
[1]; Table 11, 3 h
  % Prodrug at time (h): 96%
[1]; Table 11, 5 h
  % Prodrug at time (h): 94%
[1]; Table 11, 24 h
  % Prodrug at time (h): 71%
[2]; [11]
  24 h cumulative amt: 138.7 ± 101.2 nmol
  24 h skin conc: 17.3 ± 0.4 µmol/g
  Flux: 9.4 ± 5.9 nmol/cm^2/h
  Lag time: 9.1 ± 2.0 h
[2]; [12]
  24 h cumulative amt: 245.2 ± 54.1 nmol
  24 h skin conc: 4.3 ± 0.3 µmol/g
  Flux: 16.1 ± 0.1 nmol/cm^2/h
  Lag time: 1.4 ± 0.0 h

## CCCCCc1cc(OC(=O)[C@@H](O)CO)c2c(c1)OC(C)(C)[C@@H]1CCC(C)=C[C@@H]21 [ALL00134, A9-Tetrahydrocannabinol (S)-2,3-dihydroxypropanoate]
[1]; Table 15, 0.1 h
  % Prodrug at time (h): 96%
[1]; Table 15, 0.5 h
  % Prodrug at time (h): 61%
[1]; Table 15, 2 h
  % Prodrug at time (h): 15%
[1]; Table 15, 5 h
  % Prodrug at time (h): 0.8%
[1]; Table 15, 24 h
  % Prodrug at time (h): 0%
[2]; [13]
  24 h cumulative amt: 128.6 ± 5.1 nmol
  24 h skin conc: 24.5 ± 12.3 µmol/g
  Flux: 8.0 ± 0.3 nmol/cm^2/h
  Lag time: 7.0 ± 0.1 h
